In brackets after ≈: the same amount, converted by molar mass.

This is an account of results in ChEMBL document CHEMBL2429834, “Potent histone deacetylase inhibitors derived from 4-(aminomethyl)-N-hydroxybenzamide with high selectivity for the HDAC6 isoform” (J Med Chem, 2013).

One series has as its target T1, Histone deacetylase 11 (Homo sapiens, UniProt Q96DB2).
T1 sequence (Q96DB2 whole entry): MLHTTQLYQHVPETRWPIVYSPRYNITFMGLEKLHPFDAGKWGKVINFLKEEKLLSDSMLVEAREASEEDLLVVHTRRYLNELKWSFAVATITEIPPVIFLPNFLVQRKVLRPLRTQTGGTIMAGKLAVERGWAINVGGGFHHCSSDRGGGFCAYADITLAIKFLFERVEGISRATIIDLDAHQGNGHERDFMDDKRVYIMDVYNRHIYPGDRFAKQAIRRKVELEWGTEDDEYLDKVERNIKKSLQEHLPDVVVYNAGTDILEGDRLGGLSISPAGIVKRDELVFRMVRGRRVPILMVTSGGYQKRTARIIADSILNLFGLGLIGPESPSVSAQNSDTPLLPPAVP
In words: Inhibition of full length N-terminal GST-tagged recombinant human HDAC11 expressed in baculovirus using Arg-His-Lys-Lys (Ac) as substrate after 1 hr by fluorescence plate reader analysis.

The target of the next series is T2, Histone deacetylase 8 (Homo sapiens, UniProt Q9BY41).
T2 sequence (Q9BY41 whole entry): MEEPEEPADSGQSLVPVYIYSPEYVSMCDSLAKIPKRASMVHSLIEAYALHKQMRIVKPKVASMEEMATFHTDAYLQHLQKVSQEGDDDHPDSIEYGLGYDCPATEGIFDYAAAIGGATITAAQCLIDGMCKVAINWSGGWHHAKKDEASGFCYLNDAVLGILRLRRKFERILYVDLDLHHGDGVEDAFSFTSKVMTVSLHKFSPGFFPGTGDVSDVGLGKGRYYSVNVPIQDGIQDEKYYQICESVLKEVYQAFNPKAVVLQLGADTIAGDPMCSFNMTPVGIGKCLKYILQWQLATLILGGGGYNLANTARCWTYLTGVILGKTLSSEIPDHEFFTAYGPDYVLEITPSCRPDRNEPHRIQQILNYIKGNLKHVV
In words: Inhibition of full length C-terminal His6x-tagged recombinant human HDAC8 expressed in baculovirus using Arg-His-Lys(Ac)-Lys(Ac) as substrate after 1 hr by fluorescence plate reader analysis.

The next series deals with Histone deacetylase 5 (Homo sapiens, UniProt Q9UQL6). In words: Inhibition of C-terminal His6x-tagged recombinant human HDAC5 (657 to 1123) expressed in baculovirus using acetyl-Lys(trifluoroacetyl)-AMC as substrate after 1 hr by fluorescence plate reader analysis.
Series [1] addresses T3, Protein deacetylase HDAC6 (Homo sapiens, UniProt Q9UBN7).
T3 sequence (Q9UBN7 whole entry): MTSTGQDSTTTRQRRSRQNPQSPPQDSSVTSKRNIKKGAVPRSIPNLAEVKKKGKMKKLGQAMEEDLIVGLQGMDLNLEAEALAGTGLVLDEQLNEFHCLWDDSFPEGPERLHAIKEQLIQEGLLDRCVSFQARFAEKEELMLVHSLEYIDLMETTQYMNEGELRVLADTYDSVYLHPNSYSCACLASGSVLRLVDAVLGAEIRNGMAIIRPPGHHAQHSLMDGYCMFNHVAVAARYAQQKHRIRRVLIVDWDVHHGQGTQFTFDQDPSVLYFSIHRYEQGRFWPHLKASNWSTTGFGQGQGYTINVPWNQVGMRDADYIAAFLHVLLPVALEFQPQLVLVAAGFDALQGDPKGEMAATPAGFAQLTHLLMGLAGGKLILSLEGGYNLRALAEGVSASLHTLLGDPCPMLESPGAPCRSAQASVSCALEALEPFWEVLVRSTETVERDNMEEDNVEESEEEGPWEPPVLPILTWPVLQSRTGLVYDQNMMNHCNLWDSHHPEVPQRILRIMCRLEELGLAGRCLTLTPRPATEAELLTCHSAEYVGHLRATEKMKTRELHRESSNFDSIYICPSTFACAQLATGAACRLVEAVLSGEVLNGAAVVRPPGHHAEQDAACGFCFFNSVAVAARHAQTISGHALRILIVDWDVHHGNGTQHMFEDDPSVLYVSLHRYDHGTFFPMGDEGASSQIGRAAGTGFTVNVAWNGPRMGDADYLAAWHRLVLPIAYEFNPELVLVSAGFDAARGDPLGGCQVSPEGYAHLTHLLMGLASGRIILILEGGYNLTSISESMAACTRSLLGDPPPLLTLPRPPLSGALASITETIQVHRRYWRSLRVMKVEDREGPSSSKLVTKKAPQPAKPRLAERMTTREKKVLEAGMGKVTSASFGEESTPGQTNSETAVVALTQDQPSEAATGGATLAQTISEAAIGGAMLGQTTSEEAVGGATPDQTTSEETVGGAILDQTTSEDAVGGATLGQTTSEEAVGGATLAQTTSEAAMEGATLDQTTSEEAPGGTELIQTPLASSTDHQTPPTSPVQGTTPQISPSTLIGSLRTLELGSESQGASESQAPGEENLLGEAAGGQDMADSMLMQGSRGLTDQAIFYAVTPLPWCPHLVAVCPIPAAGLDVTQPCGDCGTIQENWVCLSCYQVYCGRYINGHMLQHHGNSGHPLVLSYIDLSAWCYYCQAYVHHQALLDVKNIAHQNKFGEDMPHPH
In words: Inhibition of N-terminal GST-tagged recombinant HDAC6 (unknown origin) assessed as deacetylation of Ac-Arg-Gly-Lys (Ac) after 1 hr by fluorescence plate reader analysis in presence of trypsin.

The next series is filed under the species Homo sapiens. In words: Selectivity ratio of IC50 for full length C-terminal His6x-tagged recombinant human HDAC8 to IC50 for N-terminal GST-tagged recombinant HDAC6 (unknown origin).
In series [2] the target is T3, Protein deacetylase HDAC6. In words: Inhibition of HDAC6 in human HeLa cells using acetyl tubulin as substrate assessed as Ac-tubulin accumulation in cytosol after 6 hrs by immunofluorescence assay.
The target of the next series is Histone deacetylase 2 (Homo sapiens, UniProt Q92769). Put plainly: Inhibition of full length C-terminal His6x-tagged recombinant human HDAC2 expressed in baculovirus using Arg-His-Lys-Lys (Ac) as substrate after 2 hrs by fluorescence plate reader analysis.
Series [3] addresses T4, Protein deacetylase HDAC6 (Homo sapiens) (UniProt Q9UBN7).
T4 sequence (whole entry): T3 sequence (Q9UBN7 whole entry)
In words: Inhibition of HDAC6 in human HeLa cells using acetyl tubulin as substrate assessed as Ac-Lys accumulation in nuclear histones at 20 uM after 24 hrs by immunofluorescence assay relative to control.

Series [4] is described as follows: Permeability in human Caco2 cells at pH 7.4. The series is classed as ADME, cell-based. Particulars: Caco-2, pH 7.4, read-out: permeability. A general note: Caco-2 monolayers are a common model of the intestinal barrier.
Series [5] is described as follows: Aqueous thermodynamic solubility of the compound in potassium phosphate monobasic buffer at pH 7.5 after 24 hrs by LC-MS analysis. The class given is physicochemical. Particulars: read-out: Therm_solubility.
Series [6] concerns the target Matrix metalloproteinase-9 (Homo sapiens) (UniProt P14780). In words: Inhibition of MMP9 (unknown origin).

Chain of Histone deacetylase 2 (Q92769 whole entry): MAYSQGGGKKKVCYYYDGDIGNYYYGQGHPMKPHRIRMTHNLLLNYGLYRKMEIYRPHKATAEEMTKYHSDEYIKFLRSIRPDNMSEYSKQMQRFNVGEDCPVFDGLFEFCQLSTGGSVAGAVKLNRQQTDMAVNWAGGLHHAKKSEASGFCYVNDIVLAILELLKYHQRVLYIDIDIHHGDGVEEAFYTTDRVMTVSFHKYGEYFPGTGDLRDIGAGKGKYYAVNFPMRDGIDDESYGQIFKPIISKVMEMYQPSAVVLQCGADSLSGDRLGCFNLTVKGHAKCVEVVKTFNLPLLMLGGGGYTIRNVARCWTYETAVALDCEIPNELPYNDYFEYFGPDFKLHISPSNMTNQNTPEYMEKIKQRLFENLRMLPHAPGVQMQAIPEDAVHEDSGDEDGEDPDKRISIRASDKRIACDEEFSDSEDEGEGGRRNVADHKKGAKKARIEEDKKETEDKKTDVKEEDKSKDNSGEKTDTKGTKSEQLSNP
Chain of Histone deacetylase 5 (Q9UQL6 whole entry): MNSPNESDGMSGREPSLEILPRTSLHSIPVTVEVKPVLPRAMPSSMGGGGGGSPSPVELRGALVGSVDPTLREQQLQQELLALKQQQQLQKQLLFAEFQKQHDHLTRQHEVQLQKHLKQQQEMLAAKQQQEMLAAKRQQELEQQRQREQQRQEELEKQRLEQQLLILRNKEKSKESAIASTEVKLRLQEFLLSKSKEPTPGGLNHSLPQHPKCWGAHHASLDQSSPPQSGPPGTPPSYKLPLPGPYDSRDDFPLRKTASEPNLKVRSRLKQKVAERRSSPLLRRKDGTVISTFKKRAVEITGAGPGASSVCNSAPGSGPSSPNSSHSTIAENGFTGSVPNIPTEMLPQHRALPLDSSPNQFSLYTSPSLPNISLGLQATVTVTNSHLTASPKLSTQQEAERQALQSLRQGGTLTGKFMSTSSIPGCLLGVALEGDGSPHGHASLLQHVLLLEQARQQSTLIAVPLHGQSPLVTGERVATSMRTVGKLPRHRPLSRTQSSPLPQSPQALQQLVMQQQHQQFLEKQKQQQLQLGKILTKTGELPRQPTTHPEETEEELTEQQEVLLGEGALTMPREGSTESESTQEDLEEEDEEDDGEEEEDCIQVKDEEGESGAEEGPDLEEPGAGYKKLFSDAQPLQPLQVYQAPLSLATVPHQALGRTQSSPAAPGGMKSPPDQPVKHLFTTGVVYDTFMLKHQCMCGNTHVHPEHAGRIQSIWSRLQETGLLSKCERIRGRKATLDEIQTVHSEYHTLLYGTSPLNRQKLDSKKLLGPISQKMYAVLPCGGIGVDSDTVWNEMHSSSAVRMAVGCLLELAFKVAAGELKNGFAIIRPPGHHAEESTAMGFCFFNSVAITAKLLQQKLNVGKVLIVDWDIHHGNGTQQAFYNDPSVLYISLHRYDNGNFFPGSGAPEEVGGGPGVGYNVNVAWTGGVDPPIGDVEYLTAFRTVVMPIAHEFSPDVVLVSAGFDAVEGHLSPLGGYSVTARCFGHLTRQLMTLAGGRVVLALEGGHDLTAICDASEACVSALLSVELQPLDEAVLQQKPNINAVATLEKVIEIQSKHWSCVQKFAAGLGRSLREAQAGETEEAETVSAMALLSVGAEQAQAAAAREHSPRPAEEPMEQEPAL
Chain of Matrix metalloproteinase-9 (Homo sapiens) (P14780 whole entry): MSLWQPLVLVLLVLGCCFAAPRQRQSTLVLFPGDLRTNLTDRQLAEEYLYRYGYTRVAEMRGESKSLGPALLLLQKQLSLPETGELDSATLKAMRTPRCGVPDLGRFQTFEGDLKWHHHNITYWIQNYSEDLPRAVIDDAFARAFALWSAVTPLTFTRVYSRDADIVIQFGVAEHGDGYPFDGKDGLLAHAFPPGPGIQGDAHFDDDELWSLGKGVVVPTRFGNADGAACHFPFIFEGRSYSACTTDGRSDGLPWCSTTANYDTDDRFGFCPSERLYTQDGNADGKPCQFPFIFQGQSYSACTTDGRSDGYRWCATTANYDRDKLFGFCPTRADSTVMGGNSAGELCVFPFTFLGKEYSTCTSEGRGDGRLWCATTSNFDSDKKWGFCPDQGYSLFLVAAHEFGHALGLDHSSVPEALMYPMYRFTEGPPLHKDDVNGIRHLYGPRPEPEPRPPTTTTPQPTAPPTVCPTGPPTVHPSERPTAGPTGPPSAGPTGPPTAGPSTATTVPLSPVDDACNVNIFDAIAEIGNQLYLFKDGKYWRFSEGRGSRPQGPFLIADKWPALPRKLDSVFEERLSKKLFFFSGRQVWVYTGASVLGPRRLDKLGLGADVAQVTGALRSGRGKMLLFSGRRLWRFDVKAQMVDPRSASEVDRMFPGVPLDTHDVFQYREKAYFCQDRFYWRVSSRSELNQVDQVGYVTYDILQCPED

Broadly, the IC50 is the concentration that inhibits the measured activity by half. Broadly, the inhibition is the percentage by which the read-out fell short of the control. As to `CC(C)(C)C(=O)N1CCc2cc(C(=O)NO)ccc2C1`, the IC50 was greater than 50000 nM on Histone deacetylase 11; 2100 nM on Histone deacetylase 8; greater than 50000 nM on Histone deacetylase 5; 52 nM in [1]; 430 nM in series [2]; greater than 50000 nM at Histone deacetylase 2. Besides, the Ratio IC50 in the series filed under Homo sapiens was found to be 40. Also, the inhibition in [3] was less than 20%.

Take `Cn1cccc1C(=O)N1Cc2ccc(C(=O)NO)cc2C1`: the IC50 on Histone deacetylase 11 was greater than 50000 nM; at Histone deacetylase 8, 1300 nM; at Histone deacetylase 5 it was greater than 50000 nM; in series [1], 40 nM; in series [2] it was 340 nM; on Histone deacetylase 2, greater than 50000 nM. Also, the Ratio IC50 in the series listed under Homo sapiens worked out at 40. In addition, the inhibition in series [3] was less than 20%.

On to `Cn1cccc1C(=O)N1CCCc2cc(C(=O)NO)ccc2C1`, for which the IC50 at Histone deacetylase 11 was greater than 50000 nM; at Histone deacetylase 8, 890 nM; at Histone deacetylase 5, greater than 50000 nM; in series [1] it was 260 nM; in [2], 1480 nM; at Histone deacetylase 2 it was greater than 50000 nM. Further, the Ratio IC50 in the series listed under Homo sapiens was found to be 40. Also, the inhibition in series [3] is less than 20%.

Regarding `Cn1cccc1C(=O)N1CCc2cc(C(=O)NO)ccc2C1`, the IC50 at Histone deacetylase 11 was greater than 50000 nM; at Histone deacetylase 8, 2100 nM; at Histone deacetylase 5, greater than 50000 nM; in series [1], 36 nM; in [2] it was 210 nM; at Histone deacetylase 2 it was greater than 50000 nM. Besides, the Papp in series [4] is 22 ×10⁻⁶ cm/s. Besides, the solubility thermodynamic at 24 h in series [5] turned out to be 2000 µM (≈ 599 µg/mL). The compound also showed an INH in [6] greater than 100 µM. The inhibition in [3] was less than 20%.

For `CC(C)(C)C(=O)N1Cc2ccc(C(=O)NO)cc2C1`, the IC50 on Histone deacetylase 11 is greater than 50000 nM; at Histone deacetylase 8 it was 1300 nM; at Histone deacetylase 5, greater than 50000 nM; in [1] it was 89 nM; in series [2] it was 560 nM; on Histone deacetylase 2 it was greater than 50000 nM. Moreover, the Ratio IC50 in the series filed under Homo sapiens came out at 40. The inhibition in series [3] was less than 20%.

Regarding `Cn1cccc1C(=O)NCc1ccc(C(=O)NO)cc1`, the half-maximal inhibitory concentration (IC50) at Histone deacetylase 8 is 690 nM; on Histone deacetylase 5 it was 3300 nM; in [1], 19 nM; in series [2] it was 460 nM; at Histone deacetylase 2 it was 16000 nM. Besides, in the series listed under Homo sapiens, the Ratio IC50 is 40. Further, the inhibition in series [3] was less than 20%.
